From publication PMC4965148 (PLoS ONE, 2016)
Several values for one entry are separate records, joined by “and”; a condition that tells them apart may be missing. Equal values may be shown once. Entries after “also recorded” stand apart in the source; their conditions may differ.

Experiments:
L-type calcium channel = experiment: Selectivity panel, functional; assay type: cell-based; settings: Human
[1] = tested on: neonatal PCP treated rats; experiment: Rat neonatal PCP ID/ED set shifting; assay type: in vivo; settings: for Number of trials to criteria, Complex discrimination / Number of trials to criteria, Simple discrimination: individual rats
Procedure: Male pups were treated with either 0.9% saline (sham) or PCP (20 mg/kg, sc) on post-natal days 7, 9 and 11 and then singly housed after weaning on postnatal days 21–25. All studies were conducted in adult animals (2–4 months of age) using methods adapted from. Rats were food-restricted (15g/rat/day) for 7 days prior to the initiation of training and throughout the remainder of the study. At the time of testing the average (± SEM) body weight ranged from 278 ± 6g to 296 ± 9g across the individual treatment groups. The animals then received 3 days of training during which they were handled, habituated to the test arena (5 min/day) and trained to dig in a ceramic pot for a food reward (Honey Nut Cheerios). The testing arena was constructed of black plastic (45 cm wide x 60 cm long x 45 cm tall) and divided into 3 compartments, i.e. a separate starting box and 2 choice boxes separated by an opaque wall. Each choice box contained a terracotta (4 inch diameter) pot, filled with digging media and with scented oil applied to the rim. At the beginning of each trial the animal was placed in the start box, the sliding door was opened and the subject was allowed to freely explore the two choice boxes. Both pots were initially baited with food until the subject reliably retrieved the food rewards from each. Thereafter, rats were trained to discriminate between either 2 distinct odors (stimulus dimension 1) or 2 distinct digging media (stimulus dimension 2) in order to correctly identify the baited pot. On the first trial only, rats were allowed to dig in both pots if an error was made (with the trial scored as an error trial). Thereafter animals were allowed to dig in one pot only per trial and were tested until the performance criterion of 6 consecutive correct choices was achieved. Each trial was limited to a maximum duration of 5 min and any subject not achieving performance criteria was eliminated from the study. On completion of a successful odor discrimination animals were then trained to successfully complete a simple discrimination trial based on digging media. Odor and digging media used in these initial training trials were not used again for ID/ED testing. […] All subjects were brought to the experimental laboratory at least 30 min prior to behavioral assessment. To determine ID/ED performance rats were tested for their ability to successfully complete a series of discriminations based on either odor or digging media. In all instances subjects were pre-assigned one stimulus dimension (i.e. digging media or odor) as the correct predictor of the food reward for the first series of discriminations. Only at the final stage i.e. the extra-dimensional shift (EDS) was the subject required to shift attention away from the assigned stimulus dimension to a different dimension (e.g. odor to digging media) to correctly identify the baited pot. The sequence of discriminations was a follows: simple discrimination (SD), compound discrimination (CD), intra-dimensional shift 1 (IDS1), intra-dimensional shift 2 (IDS2), intra-dimensional shift 2 reversal (IDS2rev) and EDS and examples of exemplars are shown in S1 Table. For all discrimination stages successful completion was defined as 6 consecutive correct trials at which point subjects progressed to the next phase of the task. The test session ended when either i) all discrimination phases were successfully completed or ii) testing had proceeded for 120 min. The average duration of a test session was 1 h and all subjects completed the ID/ED task within the allotted timeframe.

5-HT2A = 5-HT2A (Homo sapiens, UniProt P28223); experiment: Selectivity panel, functional; assay type: cell-based
5-HT2A, sequence (P28223 whole entry): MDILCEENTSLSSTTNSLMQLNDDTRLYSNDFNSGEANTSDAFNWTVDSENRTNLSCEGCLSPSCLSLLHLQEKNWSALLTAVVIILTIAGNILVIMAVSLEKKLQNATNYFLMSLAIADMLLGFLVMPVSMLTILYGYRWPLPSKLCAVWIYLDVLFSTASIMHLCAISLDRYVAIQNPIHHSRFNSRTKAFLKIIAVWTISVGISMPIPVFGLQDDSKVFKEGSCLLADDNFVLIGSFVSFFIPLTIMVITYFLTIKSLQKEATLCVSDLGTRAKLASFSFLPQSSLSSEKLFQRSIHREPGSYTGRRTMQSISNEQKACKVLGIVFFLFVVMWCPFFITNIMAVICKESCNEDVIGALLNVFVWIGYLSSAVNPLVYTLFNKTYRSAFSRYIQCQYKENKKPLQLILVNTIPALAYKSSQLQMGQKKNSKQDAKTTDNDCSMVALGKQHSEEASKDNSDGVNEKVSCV

Dopamine D2 = Dopamine D2 (Homo sapiens, UniProt P14416); experiment: Selectivity panel, binding
Dopamine D2, sequence (P14416 whole entry): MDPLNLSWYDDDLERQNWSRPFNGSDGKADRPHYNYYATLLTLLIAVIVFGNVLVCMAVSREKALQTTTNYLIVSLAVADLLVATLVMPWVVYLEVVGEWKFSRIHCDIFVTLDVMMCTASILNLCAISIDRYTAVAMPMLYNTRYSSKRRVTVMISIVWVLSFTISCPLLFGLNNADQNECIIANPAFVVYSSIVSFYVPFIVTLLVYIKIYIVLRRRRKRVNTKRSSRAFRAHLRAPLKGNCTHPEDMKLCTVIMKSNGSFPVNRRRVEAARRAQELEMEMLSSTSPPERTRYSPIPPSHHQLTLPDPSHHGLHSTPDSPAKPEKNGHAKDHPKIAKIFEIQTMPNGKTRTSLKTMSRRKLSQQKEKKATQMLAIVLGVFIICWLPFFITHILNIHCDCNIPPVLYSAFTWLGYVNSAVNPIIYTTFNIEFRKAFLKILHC

5-HT2B = 5-HT2B (Homo sapiens, UniProt P41595); experiment: Selectivity panel, functional; assay type: cell-based
5-HT2B, sequence (P41595 whole entry): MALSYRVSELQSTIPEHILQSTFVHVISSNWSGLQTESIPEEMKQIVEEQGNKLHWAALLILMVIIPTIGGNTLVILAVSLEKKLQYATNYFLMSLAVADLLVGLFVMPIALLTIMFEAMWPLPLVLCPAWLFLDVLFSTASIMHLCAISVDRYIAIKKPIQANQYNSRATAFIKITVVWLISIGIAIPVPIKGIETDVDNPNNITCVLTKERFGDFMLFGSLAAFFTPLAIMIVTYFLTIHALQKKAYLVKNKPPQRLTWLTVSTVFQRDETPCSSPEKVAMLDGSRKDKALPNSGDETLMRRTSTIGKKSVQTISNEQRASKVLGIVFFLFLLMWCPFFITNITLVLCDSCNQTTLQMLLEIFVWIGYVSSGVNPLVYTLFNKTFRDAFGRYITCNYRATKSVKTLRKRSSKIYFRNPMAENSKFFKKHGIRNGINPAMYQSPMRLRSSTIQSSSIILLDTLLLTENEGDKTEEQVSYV

Nav1.5 = Nav1.5 (Homo sapiens, UniProt Q14524); experiment: Selectivity panel, functional; assay type: cell-based
5-HT1B = experiment: Selectivity panel, binding; settings: read-out: % inhibition @ 10 µM, Rat
MAO-A = MAO-A (Homo sapiens, UniProt P21397); experiment: Selectivity panel, enzyme; assay type: biochemical
MAO-A, sequence (P21397 whole entry): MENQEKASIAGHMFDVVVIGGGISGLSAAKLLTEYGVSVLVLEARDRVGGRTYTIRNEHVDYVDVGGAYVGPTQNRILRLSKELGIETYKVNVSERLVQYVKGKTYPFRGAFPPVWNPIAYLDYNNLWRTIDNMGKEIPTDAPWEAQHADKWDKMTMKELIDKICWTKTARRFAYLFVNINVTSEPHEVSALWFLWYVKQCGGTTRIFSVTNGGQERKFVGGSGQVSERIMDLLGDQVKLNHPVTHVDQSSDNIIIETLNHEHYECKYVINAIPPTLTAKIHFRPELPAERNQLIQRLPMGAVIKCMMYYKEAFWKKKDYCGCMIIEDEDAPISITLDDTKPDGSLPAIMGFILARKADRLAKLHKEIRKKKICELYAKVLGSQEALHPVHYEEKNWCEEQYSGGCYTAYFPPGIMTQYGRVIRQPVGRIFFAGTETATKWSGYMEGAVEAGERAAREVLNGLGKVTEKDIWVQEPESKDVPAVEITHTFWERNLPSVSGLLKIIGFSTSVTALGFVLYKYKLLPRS

Histamine H1 = Histamine H1 (Homo sapiens, UniProt P35367); experiment: Selectivity panel, binding
Adrenergic α1D = Adrenergic α1D (Homo sapiens, UniProt P25100); experiment: Selectivity panel, binding
[2] = biological target: T1, HEK293/rat α7 nAChR cells (Rattus norvegicus, UniProt Q05941); experiment: Whole cell voltage clamp electrophysiology; assay type: cell-based; settings: for Net Charge (Current Area) normalized to 300 µM ACh / Peak Current normalized to 3 mM ACh: individual cells; for mean ± SEM peak current Ymax: n = 5
T1 construct: expressed in transfected cells
T1 sequence (Q05941 23-502): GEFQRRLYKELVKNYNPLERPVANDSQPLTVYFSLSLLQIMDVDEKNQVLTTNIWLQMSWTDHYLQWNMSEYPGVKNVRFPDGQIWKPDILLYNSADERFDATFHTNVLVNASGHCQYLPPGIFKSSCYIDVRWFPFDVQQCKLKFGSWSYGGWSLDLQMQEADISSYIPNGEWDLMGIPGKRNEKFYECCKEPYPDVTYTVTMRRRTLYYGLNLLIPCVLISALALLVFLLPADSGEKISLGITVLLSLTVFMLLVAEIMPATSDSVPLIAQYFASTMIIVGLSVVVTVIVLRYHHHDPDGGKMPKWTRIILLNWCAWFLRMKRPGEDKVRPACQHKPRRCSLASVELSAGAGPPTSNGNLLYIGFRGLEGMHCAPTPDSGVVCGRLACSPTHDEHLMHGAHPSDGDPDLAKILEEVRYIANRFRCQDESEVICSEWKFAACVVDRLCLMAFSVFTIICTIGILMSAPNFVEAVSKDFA
Procedure: Whole-cell voltage clamp studies were conducted on HEK293/rat α7 or HEK293/human α7 nAChR cells. […] Atropine (1 μM) was included in the bathing solution. […] Cells were voltage clamped at a holding potential of -90 mV. Using the Dynaflow microfluidic perfusion system (Cellectricon; flow 26 μl/min) responses to a 300 ms application of ACh or α7 nAChR agonists were measured. Currents were filtered at 2 kHz and sampled at 10 kHz using an EPC-9 amplifier and HEKA Pulse/Patchmaster software. […] The peak current amplitude and net charge crossing the membrane (i.e. the area under the current response curve) induced by agonist application were measured using Clampfit (pClamp Suite) and normalized to the maximal response induced by ACh (3 mM ACh for peak current amplitude and 300 μM ACh for net charge).

Progesterone receptor = Progesterone receptor (Homo sapiens, UniProt P06401); experiment: Selectivity panel, binding
Progesterone receptor, sequence (P06401 whole entry): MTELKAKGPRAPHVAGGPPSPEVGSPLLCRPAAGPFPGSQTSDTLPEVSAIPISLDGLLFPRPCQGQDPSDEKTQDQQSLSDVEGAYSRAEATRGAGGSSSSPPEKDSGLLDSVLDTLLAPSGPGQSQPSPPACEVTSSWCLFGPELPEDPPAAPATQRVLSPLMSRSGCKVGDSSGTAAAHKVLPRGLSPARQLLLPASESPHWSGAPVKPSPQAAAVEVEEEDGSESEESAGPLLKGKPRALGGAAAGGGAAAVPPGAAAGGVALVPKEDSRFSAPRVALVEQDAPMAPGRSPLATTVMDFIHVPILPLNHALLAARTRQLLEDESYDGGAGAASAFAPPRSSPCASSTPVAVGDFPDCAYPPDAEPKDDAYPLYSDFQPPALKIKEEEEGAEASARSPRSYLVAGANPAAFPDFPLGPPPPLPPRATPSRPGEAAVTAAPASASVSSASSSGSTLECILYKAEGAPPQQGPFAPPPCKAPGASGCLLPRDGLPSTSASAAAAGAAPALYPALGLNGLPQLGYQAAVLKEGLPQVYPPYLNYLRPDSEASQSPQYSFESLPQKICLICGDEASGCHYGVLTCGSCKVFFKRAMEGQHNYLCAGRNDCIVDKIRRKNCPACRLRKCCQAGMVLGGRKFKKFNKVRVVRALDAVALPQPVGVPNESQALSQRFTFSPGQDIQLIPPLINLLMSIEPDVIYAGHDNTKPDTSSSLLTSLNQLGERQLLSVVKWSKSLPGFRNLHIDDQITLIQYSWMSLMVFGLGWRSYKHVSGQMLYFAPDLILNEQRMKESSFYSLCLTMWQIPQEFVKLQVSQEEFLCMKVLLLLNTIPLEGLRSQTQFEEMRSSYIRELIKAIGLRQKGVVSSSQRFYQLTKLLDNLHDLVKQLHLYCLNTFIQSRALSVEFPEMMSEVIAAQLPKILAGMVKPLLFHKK

Muscarinic M1 = Muscarinic M1 (Homo sapiens, UniProt P11229); experiment: Selectivity panel, binding; settings: read-out: % inhibition @ 10 µM
Muscarinic M1, sequence (P11229 whole entry): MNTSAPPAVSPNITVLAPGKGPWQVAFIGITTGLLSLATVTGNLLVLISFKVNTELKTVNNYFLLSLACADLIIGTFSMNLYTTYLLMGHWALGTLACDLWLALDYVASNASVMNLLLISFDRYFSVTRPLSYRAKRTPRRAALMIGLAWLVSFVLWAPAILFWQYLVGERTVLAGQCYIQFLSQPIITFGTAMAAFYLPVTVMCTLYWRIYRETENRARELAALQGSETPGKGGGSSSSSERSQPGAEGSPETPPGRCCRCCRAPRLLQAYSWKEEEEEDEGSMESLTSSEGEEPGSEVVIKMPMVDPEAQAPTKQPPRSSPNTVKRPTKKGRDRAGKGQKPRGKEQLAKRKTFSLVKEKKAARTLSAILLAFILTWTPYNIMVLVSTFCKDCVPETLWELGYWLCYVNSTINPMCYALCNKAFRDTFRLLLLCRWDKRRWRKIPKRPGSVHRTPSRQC

rat α4β2 nAChR = biological target: T2, rat α4β2 nAChR (Rattus norvegicus, UniProt P09483+P12390); experiment: Ca2+ flux (FLIPR) agonist/antagonist assay; assay type: cell-based; settings: FLIPR antagonist mode, EC90 ACh
T2 construct: expressed in transfected cells; host or cells: HEK293 (made by Bristol-Myers Squibb)
T2 sequence (P09483 31-630): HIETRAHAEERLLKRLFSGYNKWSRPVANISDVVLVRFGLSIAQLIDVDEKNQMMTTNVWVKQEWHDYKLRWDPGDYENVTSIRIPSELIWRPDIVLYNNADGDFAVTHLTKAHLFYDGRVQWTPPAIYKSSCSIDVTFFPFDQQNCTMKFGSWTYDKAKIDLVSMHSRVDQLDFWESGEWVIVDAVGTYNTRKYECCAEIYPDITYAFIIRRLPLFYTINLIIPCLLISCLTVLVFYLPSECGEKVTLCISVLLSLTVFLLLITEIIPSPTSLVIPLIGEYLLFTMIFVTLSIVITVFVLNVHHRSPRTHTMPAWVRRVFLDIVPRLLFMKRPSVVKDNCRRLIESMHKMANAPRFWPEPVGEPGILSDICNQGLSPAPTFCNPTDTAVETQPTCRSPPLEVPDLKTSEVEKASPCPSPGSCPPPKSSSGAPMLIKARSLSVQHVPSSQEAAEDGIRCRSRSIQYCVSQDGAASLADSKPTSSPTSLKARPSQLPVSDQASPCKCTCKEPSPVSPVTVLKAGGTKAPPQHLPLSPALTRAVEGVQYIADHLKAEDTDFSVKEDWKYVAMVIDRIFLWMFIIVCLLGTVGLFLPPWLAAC
T2 sequence (P12390 25-500): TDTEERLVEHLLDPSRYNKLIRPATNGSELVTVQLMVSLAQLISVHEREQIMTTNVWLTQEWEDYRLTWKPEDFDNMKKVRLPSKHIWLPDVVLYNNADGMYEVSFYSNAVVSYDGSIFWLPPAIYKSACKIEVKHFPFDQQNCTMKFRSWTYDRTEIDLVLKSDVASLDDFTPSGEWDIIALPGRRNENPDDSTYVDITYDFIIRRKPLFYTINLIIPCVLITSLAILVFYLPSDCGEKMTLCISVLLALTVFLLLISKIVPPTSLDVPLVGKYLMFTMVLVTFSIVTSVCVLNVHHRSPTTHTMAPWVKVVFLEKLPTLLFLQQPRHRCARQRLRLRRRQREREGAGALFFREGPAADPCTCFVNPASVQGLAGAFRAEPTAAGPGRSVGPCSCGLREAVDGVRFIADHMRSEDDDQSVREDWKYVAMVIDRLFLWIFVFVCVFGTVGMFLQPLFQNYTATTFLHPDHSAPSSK

c1cn(-c2cc(NC3=NC[C@@]4(CN5CCC4CC5)O3)ncn2)cn1 [BMS-933043, (2R)-N-(6-(1H-imidazol-1-yl)-4-pyrimidinyl)-4'H-spiro[4-azabicyclo[2.2.2]octane-2,5'-[1,3]oxazol]-2'-amine]
IC50 (L-type calcium channel): > 25 µM | EDS performance in neonatal PCP treated rats ([1]; 0.1–3 mg/kg po): significantly improved EDS performance; also recorded: completely reversed by all doses | Number of trials to criteria, Complex discrimination ([1]; PCP/0.1 mg/kg po, 0.1 mg/kg): 6 (2×) and 16 and 7 (2×) and 8 (2×) and 21 and 19 | Number of trials to criteria, Simple discrimination ([1]; PCP/0.1 mg/kg po, 0.1 mg/kg): 7 (3×) and 11 and 9 and 8 (2×) and 10 and 6 | Number of trials to criteria, Complex discrimination ([1]; PCP/0.3 mg/kg po, 0.3 mg/kg): 18 and 10 (2×) and 7 and 6 (3×) and 8 and 16 | Number of trials to criteria, Simple discrimination ([1]; PCP/0.3 mg/kg po, 0.3 mg/kg): 10 and 15 and 13 and 8 and 9 and 12 and 6 and 19 and 7 | Number of trials to criteria, Complex discrimination ([1]; PCP/1 mg/kg po, 1 mg/kg): 6 (2×) and 11 (2×) and 7 (2×) and 13 and 14 (2×) | Number of trials to criteria, Simple discrimination ([1]; PCP/1 mg/kg po, 1 mg/kg): 6 (3×) and 12 (2×) and 13 and 11 and 8 and 9 | Number of trials to criteria, Complex discrimination ([1]; PCP/3 mg/kg po, 3 mg/kg): 6 (2×) and 8 and 16 and 10 (2×) and 15 and 17 and 11 | Number of trials to criteria, Simple discrimination ([1]; PCP/3 mg/kg po, 3 mg/kg): 7 (4×) and 6 (2×) and 16 (2×) and 9 | Active dose range, Neonatal PCP ID/ED ([1]; po): 0.1–3.0 (po) mg/kg | longer time to complete the EDS in neonatal PCP treated rats ([1]; po): attenuated | EC50 (5-HT2A): > 10 µM | IC50 (Dopamine D2): > 30 µM | EC50 (5-HT2B): > 10 µM | IC50 (Nav1.5): > 30 µM | inhibition at 10 µM (5-HT1B): 0% | IC50 (MAO-A): > 30 µM | IC50 (Histamine H1): > 30 µM | IC50 (Adrenergic α1D): > 30 µM | EC50 [2]: 0.14 ± 0.03 µM | Net Charge (Current Area) normalized to 300 µM ACh ([2]; 0.1 µM): 0.00864 and -0.014 and 0.05917 and 0.0877 | Peak Current normalized to 3 mM ACh ([2]; 0.1 µM): 0.01158 and 0.01083 and 0.01236 and 0.0131 | Net Charge (Current Area) normalized to 300 µM ACh ([2]; 0.3 µM): 0.4138 and 0.2853 and 0.4739 and 0.5256 | Peak Current normalized to 3 mM ACh ([2]; 0.3 µM): 0.04784 and 0.02829 and 0.03284 and 0.03669 | Net Charge (Current Area) normalized to 300 µM ACh ([2]; 1 µM): 0.7172 and 0.3555 and 0.6626 and 0.6549 | Peak Current normalized to 3 mM ACh ([2]; 1 µM): 0.07111 and 0.07356 and 0.0749 and 0.08082 | Net Charge (Current Area) normalized to 300 µM ACh ([2]; 3 µM): 0.7919 and 0.4794 and 0.6677 and 0.6569 | Peak Current normalized to 3 mM ACh ([2]; 3 µM): 0.1558 and 0.1519 and 0.1651 and 0.1365 | Net Charge (Current Area) normalized to 300 µM ACh ([2]; 10 µM): 0.8266 and 0.4637 and 0.7322 and 0.6673 | Peak Current normalized to 3 mM ACh ([2]; 10 µM): 0.2731 and 0.2904 and 0.2952 and 0.2153 | mean ± SEM peak current Ymax ([2]; BMS-933043 10 μM alone): 0.26 ± 0.03 | mean ± SEM peak current Ymax ([2]; BMS-933043 10 μM in the presence of 10 nM MLA): 0.02 ± 0.003 | Mean ± SEM Net Charge Ymax ([2]; Rat, normalized to 300 μM ACh): 0.67 ± 0.07 | Mean ± SEM Peak Current Ymaxobs @ 10 μM ([2]; Rat, normalized to 3 mM ACh): 0.27 ± 0.02 | IC50 (Progesterone receptor): > 150 µM | inhibition at 10 µM (Muscarinic M1): 11% | IC50 (rat α4β2 nAChR): > 30 µM
